Experimental data as given in patent US20080096894A1, “Anti-Bacterial Compounds” (ASTON UNIVERSITY, priority 2005, published 2008).
Converted amounts (≈) assume the structure as drawn. Where two headings read alike, the source gives them in different places.

Tests used:
[1] = system: Bacillus cereus; assay: MIC, agar dilution, multipoint inoculator; format: cell-based
Protocol: (§1) This activity was measured using a multipoint inoculator method as follows. The MIC for each compound was measured using an agar dilution method (Onda, H., et al., Int. J. Antimicrob. Agents. 18, 263 (2001)) (Mueller Hinton agar) by means of a multipoint inoculator delivering 10^4 colony forming units per spot.
(§2) 4Pycq was also tested against the following bacteria, using the multipoint inoculator method.

[2] = system: Bacillus megarerium; assay: MIC, agar dilution, multipoint inoculator; format: cell-based
Protocol: as §1, §2

[3] = system: Bacillus polymyxa; assay: MIC, agar dilution, multipoint inoculator; format: cell-based; settings: Paenibacillus polymyxa
Protocol: as §1, §2

[4] = system: Micrococcus roseus; assay: MIC, agar dilution, multipoint inoculator; format: cell-based; settings: Kocuria rosea
Protocol: as §1, §2

[5] = system: C. difficile (NCTC 11204 and thirty-two clinical isolates); assay: Minimum Inhibitory Concentration (MIC) against C. difficile, microtiter plate, anaerobic, 48 hours; format: cell-based, Clostridium difficile; settings: Clostridioides difficile, read-out: MIC
Protocol: (§3) Compounds 4PYcq and 4PYOfi were screened against one NCTC strain and thirty-two clinical isolates of Clostridium difficile as described below.
(§4) The antimicrobial compounds were prepared by adding 5.12 mg of each compound to 1 ml of DMSO. From each solution 100 μl was then aseptically transferred into 1 ml of sterile distilled water to give a concentration of 512 μg/ml. 100 μl of each diluted compound was then added to the first well of a sterile 96-well microliter plate. Serial dilutions were performed to give a concentration range spanning from 0 to 512 μg/ml of each compound. The microtiter plate containing the antimicrobials was left to equilibrate in an anaerobic cabinet for 3 hours before the addition of C. difficile cells. An overnight culture of C. difficile (NCTC 11204) was standardized to an OD^600 of 0.04 (approximately 10^6 CFU/ml), using Wilkins Chalgren broth and was vortexed for 60 seconds to ensure there was a uniform suspension. 100 μl of standardized culture was then added to each well of the microtiter plate, containing the equilibrated antimicrobials. The final concentrations of the antimicrobials in the wells therefore ranged from […] and the concentration of the culture was 10^5 CFU/ml in each well. The microtiter plate was incubated at 37° C., for 48 hours under anaerobic conditions. The MIC was determined as the lowest concentration of antimicrobial agent inhibiting the total growth of C. difficile cells. After incubation, the total solution from each well was aseptically spread onto a separate Wilkins chalgren agar plate. Plates were incubated for 48 hours, at 37° C., under anaerobic conditions. The number of colonies on each plate was counted after incubation and the MBC was determined as the lowest concentration of the antimicrobial agent at which 99.9% of organisms in the original inoculum were killed.

[6] = system: C. difficile (NCTC 11204 and thirty-two clinical isolates); assay: Minimum Bactericidal Concentration (MBC) against C. difficile, 99.9% kill; format: cell-based, Clostridium difficile; settings: Clostridioides difficile, read-out: MBC
Protocol: as §3, §4

[7] = system: Propionibacterium acnes; assay: MIC against Propionibacterium acnes, microtitre double dilution in BHI; format: cell-based; settings: Cutibacterium acnes, read-out: MIC
Protocol: Compounds 4PYcq and 4PYOfi were screened against one NCTC stain and seven clinical isolates of Propionibacterium acnes as described below.
Bacterial strains of Propionibacterium acnes, stored on beads at −20° C., were plated onto Brain heart infusion (BHI) agar plates. The cultures were incubated anaerobically for 4 days at 37° C.
Bacterial suspensions were prepared by diluting bacterial suspensions with BHI to obtain bacterial concentrations approximately 2×10^6 cfu/ml.
The test antimicrobial compounds were prepared by diluting the compound with appropriate nutrient broth to obtain correct stock solution. 50 μl of BHI were aliquoted onto the wells of the round-bottomed microtitre plate. 50 μl of the antimicrobial compounds were added onto the wells in the first column of the plate and several serial double dilutions were performed along the wells on each row. Following the series of double dilutions of the test compound the bacterial suspension were added onto each well except on the last column which served as a negative control. The lowest concentration of the test compound which inhibited bacterial growth was regarded as MIC of the compound.

[8] = system: Acinetobater spp.; assay: activity against Acinetobacter spp.; format: cell-based; settings: Gram-negative bacterium
[9] = Clostridium difficile Isolate 1
[10] = Clostridium difficile Isolate 2
[11] = Clostridium difficile Isolate 3
[12] = Clostridium difficile Isolate 4
[13] = Clostridium difficile Isolate 5
[14] = Clostridium difficile Isolate 6
[15] = Clostridium difficile Isolate 7
[16] = Clostridium difficile Isolate 8
[17] = Clostridium difficile Isolate 9
[18] = Clostridium difficile Isolate 10
[19] = Clostridium difficile Isolate 11
[20] = Clostridium difficile Isolate 12
[21] = Clostridium difficile Isolate 13
[22] = Clostridium difficile Isolate 14
[23] = Clostridium difficile Isolate 15
[24] = Clostridium difficile Isolate 16
[25] = Clostridium difficile Isolate 17
[26] = Clostridium difficile Isolate 18
[27] = Clostridium difficile Isolate 19
[28] = Clostridium difficile Isolate 20
[29] = Clostridium difficile Isolate 21
[30] = Clostridium difficile Isolate 22
[31] = Clostridium difficile Isolate 23
[32] = Clostridium difficile Isolate 24
[33] = Clostridium difficile Isolate 25
[34] = Clostridium difficile Isolate 26
[35] = Clostridium difficile Isolate 27
[36] = Clostridium difficile Isolate 28
[37] = Clostridium difficile Isolate 29
[38] = Clostridium difficile Isolate 30
[39] = Clostridium difficile Isolate 31
[40] = Clostridium difficile Isolate 32
[41] = Clostridium difficile NCTC 11204

- MIC [1]: 2 to 4 µg/mL (≈ 5.67 to 11.3 µM)
- MIC [2]: 0.5 to 1 µg/mL (≈ 1.42 to 2.84 µM)
- MIC [3]: 2 to 4 µg/mL (≈ 5.67 to 11.3 µM)
- MIC [4]: 0.5 to 1 µg/mL (≈ 1.42 to 2.84 µM)
- MIC [5, 9]: 4 to 8 µg/mL (≈ 11.3 to 22.7 µM)
- MIC [5, 10]: 2 to 4 µg/mL (≈ 5.67 to 11.3 µM)
- MIC [5, 11]: 2 to 4 µg/mL (≈ 5.67 to 11.3 µM)
- MIC [5, 12]: 2 to 4 µg/mL (≈ 5.67 to 11.3 µM)
- MIC [5, 13]: 2 to 4 µg/mL (≈ 5.67 to 11.3 µM)
- MIC [5, 14]: 2 to 4 µg/mL (≈ 5.67 to 11.3 µM)
- MIC [5, 15]: 4 to 8 µg/mL (≈ 11.3 to 22.7 µM)
- MIC [5, 16]: 4 to 8 µg/mL (≈ 11.3 to 22.7 µM)
- MIC [5, 17]: 4 to 8 µg/mL (≈ 11.3 to 22.7 µM)
- MIC [5, 18]: 2 to 4 µg/mL (≈ 5.67 to 11.3 µM)
- MIC [5, 19]: 2 to 4 µg/mL (≈ 5.67 to 11.3 µM)
- MIC [5, 20]: 4 to 8 µg/mL (≈ 11.3 to 22.7 µM)
- MIC [5, 21]: 4 to 8 µg/mL (≈ 11.3 to 22.7 µM)
- MIC [5, 22]: 4 to 8 µg/mL (≈ 11.3 to 22.7 µM)
- MIC [5, 23]: 4 to 8 µg/mL (≈ 11.3 to 22.7 µM)
- MIC [5, 24]: 4 to 8 µg/mL (≈ 11.3 to 22.7 µM)
- MIC [5, 25]: 2 to 4 µg/mL (≈ 5.67 to 11.3 µM)
- MIC [5, 26]: 2 to 4 µg/mL (≈ 5.67 to 11.3 µM)
- MIC [5, 27]: 4 to 8 µg/mL (≈ 11.3 to 22.7 µM)
- MIC [5, 28]: 2 to 4 µg/mL (≈ 5.67 to 11.3 µM)
- MIC [5, 29]: 4 to 8 µg/mL (≈ 11.3 to 22.7 µM)
- MIC [5, 30]: 2 to 4 µg/mL (≈ 5.67 to 11.3 µM)
- MIC [5, 31]: 2 to 4 µg/mL (≈ 5.67 to 11.3 µM)
- MIC [5, 32]: 4 to 8 µg/mL (≈ 11.3 to 22.7 µM)
- MIC [5, 33]: 4 to 8 µg/mL (≈ 11.3 to 22.7 µM)
- MIC [5, 34]: 4 to 8 µg/mL (≈ 11.3 to 22.7 µM)
- MIC [5, 35]: 4 to 8 µg/mL (≈ 11.3 to 22.7 µM)
- MIC [5, 36]: 4 to 8 µg/mL (≈ 11.3 to 22.7 µM)
- MIC [5, 37]: 4 to 8 µg/mL (≈ 11.3 to 22.7 µM)
- MIC [5, 38]: 2 to 4 µg/mL (≈ 5.67 to 11.3 µM)
- MIC [5, 39]: 4 to 8 µg/mL (≈ 11.3 to 22.7 µM)
- MIC [5, 40]: 4 to 8 µg/mL (≈ 11.3 to 22.7 µM)
- MIC [5, 41]: 4 to 8 µg/mL (≈ 11.3 to 22.7 µM)
- MIC ([7]; NCTC737, P. acnes NCTC 737): 64 to 128 µg/mL (≈ 182 to 363 µM)
- MIC ([7]; P. acnes Isolate 1): 4 to 8 µg/mL (≈ 11.3 to 22.7 µM)
- MIC ([7]; P. acnes Isolate 2): 32 to 64 µg/mL (≈ 90.8 to 182 µM)
- MIC ([7]; P. acnes Isolate 3): 2 to 4 µg/mL (≈ 5.67 to 11.3 µM)
- MIC ([7]; P. acnes Isolate 4): 128 to 256 µg/mL (≈ 363 to 726 µM)
- MIC ([7]; P. acnes Isolate 5): 64 to 128 µg/mL (≈ 182 to 363 µM)
- MIC ([7]; P. acnes Isolate 6): 64 to 128 µg/mL (≈ 182 to 363 µM)
- MIC ([7]; P. acnes Isolate 7): > 256 µg/mL
SMILES: CC(C)(C)c1cc(/C=N/N=C(\N)c2ccncc2)c(O)c(C(C)(C)C)c1 [Compound 4PYcq]
- MBC [6, 9]: 4 to 8 µg/mL (≈ 11.3 to 22.7 µM)
- MBC [6, 10]: 4 to 8 µg/mL (≈ 11.3 to 22.7 µM)
- MBC [6, 11]: 2 to 4 µg/mL (≈ 5.67 to 11.3 µM)
- MBC [6, 12]: 2 to 4 µg/mL (≈ 5.67 to 11.3 µM)
- MBC [6, 13]: 2 to 4 µg/mL (≈ 5.67 to 11.3 µM)
- MBC [6, 14]: 2 to 4 µg/mL (≈ 5.67 to 11.3 µM)
- MBC [6, 15]: 4 to 8 µg/mL (≈ 11.3 to 22.7 µM)
- MBC [6, 16]: 4 to 8 µg/mL (≈ 11.3 to 22.7 µM)
- MBC [6, 17]: 4 to 8 µg/mL (≈ 11.3 to 22.7 µM)
- MBC [6, 18]: 4 to 8 µg/mL (≈ 11.3 to 22.7 µM)
- MBC [6, 19]: 2 to 4 µg/mL (≈ 5.67 to 11.3 µM)
- MBC [6, 20]: 4 to 8 µg/mL (≈ 11.3 to 22.7 µM)
- MBC [6, 21]: 4 to 8 µg/mL (≈ 11.3 to 22.7 µM)
- MBC [6, 22]: 4 to 8 µg/mL (≈ 11.3 to 22.7 µM)
- MBC [6, 23]: 4 to 8 µg/mL (≈ 11.3 to 22.7 µM)
- MBC [6, 24]: 4 to 8 µg/mL (≈ 11.3 to 22.7 µM)
- MBC [6, 25]: 4 to 8 µg/mL (≈ 11.3 to 22.7 µM)
- MBC [6, 26]: 2 to 4 µg/mL (≈ 5.67 to 11.3 µM)
- MBC [6, 27]: 4 to 8 µg/mL (≈ 11.3 to 22.7 µM)
- MBC [6, 28]: 2 to 4 µg/mL (≈ 5.67 to 11.3 µM)
- MBC [6, 29]: 4 to 8 µg/mL (≈ 11.3 to 22.7 µM)
- MBC [6, 30]: 2 to 4 µg/mL (≈ 5.67 to 11.3 µM)
- MBC [6, 31]: 2 to 4 µg/mL (≈ 5.67 to 11.3 µM)
- MBC [6, 32]: 4 to 8 µg/mL (≈ 11.3 to 22.7 µM)
- MBC [6, 33]: 4 to 8 µg/mL (≈ 11.3 to 22.7 µM)
- MBC [6, 34]: 8 to 16 µg/mL (≈ 22.7 to 45.4 µM)
- MBC [6, 35]: 4 to 8 µg/mL (≈ 11.3 to 22.7 µM)
- MBC [6, 36]: 4 to 8 µg/mL (≈ 11.3 to 22.7 µM)
- MBC [6, 37]: 4 to 8 µg/mL (≈ 11.3 to 22.7 µM)
- MBC [6, 38]: 2 to 4 µg/mL (≈ 5.67 to 11.3 µM)
- MBC [6, 39]: 4 to 8 µg/mL (≈ 11.3 to 22.7 µM)
- MBC [6, 40]: 8 to 16 µg/mL (≈ 22.7 to 45.4 µM)
- MBC [6, 41]: 4 to 8 µg/mL (≈ 11.3 to 22.7 µM)
- activity against Acinetobater spp. (in words) [8]: inactive
